Positions count from the first letter of the chain named. Values joined by “and” are separate entries in the source; they are usually repeats but may differ in a detail not shown here. Equal entries are not always repeated.

For data set [1], the system named is hM4Di expressed in PVH SIM1 neurons. The experiment in a line: food intake, hM4Di in PVH SIM1 neurons (Sim1-Cre mice).
The next data set has as its target D1 (Homo sapiens, UniProt P21728). The experiment in a line: cAMP Glo-sensor assay, antagonist mode. Format: cell-based. To be noted: human D1, HEK293T cells, vs dopamine. How it is done: HEK293T cells in 10 cm plates were transfected with 4 μg of Glosensor and 4 μg of DNA encoding the human dopamine D1 receptor. The next day, cells were harvested and plated in polylysine-coated 384-well plates (Greiner) at a density of 20 000 cells/well in DMEM containing 1% dFBS. The next day, media was aspirated from each well and replaced with 20 μL of assay buffer containing 4 mM luciferin. Then, 10 μL of drugs were added 30 min later, and plates were read after 15 min.
In the absence of C21 ([B] = 0), this equation becomes the standard four-parameter logistic equation for fitting agonist concentration–response data.

A short description of data set [2]: brain and plasma exposure after i.p. administration. Format: in vivo, mice.
Data set [3] has as its system hM3Dq expressed in ARC AgRP neurons. The data set is described as follows: food intake, hM3Dq in ARC AgRP neurons (Agrp-ires-Cre mice).
The next data set has as its system hM3Dq in LH-vGAT neurons. The data set is described as follows: food intake, hM3Dq in LH-vGAT neurons. The data set is classed as in vivo, mice. To be noted: 0.3, 1.0, 3.0 mg/kg.
In another data set the target is T1, hM1Dq (Homo sapiens, UniProt P11229, A196G/Y106C).
T1 sequence (P11229 1-460 Y106C/A196G): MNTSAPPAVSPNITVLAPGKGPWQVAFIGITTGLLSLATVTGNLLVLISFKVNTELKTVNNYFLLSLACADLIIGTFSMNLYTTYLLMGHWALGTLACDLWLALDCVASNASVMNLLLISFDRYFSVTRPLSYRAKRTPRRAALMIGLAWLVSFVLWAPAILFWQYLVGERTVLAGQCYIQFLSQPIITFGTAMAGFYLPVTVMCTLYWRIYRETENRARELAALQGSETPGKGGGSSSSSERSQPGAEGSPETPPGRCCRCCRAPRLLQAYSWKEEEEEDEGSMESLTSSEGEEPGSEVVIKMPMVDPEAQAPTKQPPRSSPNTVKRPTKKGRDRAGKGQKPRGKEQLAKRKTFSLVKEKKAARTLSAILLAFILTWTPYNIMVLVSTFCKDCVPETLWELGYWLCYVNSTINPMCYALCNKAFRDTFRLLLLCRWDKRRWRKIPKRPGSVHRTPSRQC
The experiment in a line: ERK1/2 phosphorylation (pERK1/2) assay.

For a further data set, the target named is T2, hM1 (Homo sapiens, UniProt P11229).
T2 sequence (P11229 1-460): T1 sequence (P11229 1-460 Y106C/A196G) with C106Y, G196A
The data set is described as follows: whole-cell [3H]NMS competition binding. To be noted: hM1, FlpIn CHO cells, mean (±SEM).

Another data set deals with dopamine D3 receptors (Homo sapiens, UniProt P35462). The data set is described as follows: cAMP signaling concentration-response, agonist mode. Format: cell-based. How it is done:
(§1) HEK293 T cells were used for transient transfections and Gi mediated cAMP production assays. Assays were performed according to published procedures (PMID25895059, PRESTO-Tango paper). More detailed assay protocols are available at NIMH PDSP Web site (http://pdspdb.unc.edu/pdspWeb/?site=assays).

The target of another data set is T3, histamine H4 receptors (Homo sapiens, UniProt Q9H3N8).
T3 construct: expressed in transfected cells; host or cells: HEK293T, transient
T3 sequence (Q9H3N8 whole entry): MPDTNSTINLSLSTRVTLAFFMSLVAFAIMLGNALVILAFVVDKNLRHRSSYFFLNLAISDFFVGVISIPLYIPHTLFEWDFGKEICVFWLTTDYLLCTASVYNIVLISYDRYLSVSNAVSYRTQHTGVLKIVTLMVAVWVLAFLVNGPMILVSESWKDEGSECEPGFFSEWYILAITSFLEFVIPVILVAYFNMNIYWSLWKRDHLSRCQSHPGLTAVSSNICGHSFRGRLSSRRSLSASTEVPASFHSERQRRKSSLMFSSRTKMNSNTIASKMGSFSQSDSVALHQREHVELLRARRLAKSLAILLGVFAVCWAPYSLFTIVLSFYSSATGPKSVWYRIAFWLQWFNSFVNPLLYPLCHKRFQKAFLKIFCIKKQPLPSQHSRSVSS
The description is as above. Format: cell-based. Here is the method:
as §1

The next data set concerns the target dopamine D2 receptors (Homo sapiens, UniProt P14416). The data set is described as above. The data set is classed as cell-based. How it is done:
as §1

Where [4] appears, read: i.p. 0.1, 1 and 10 mg/kg, 30 min after administration.

dopamine D3 receptors, sequence (P35462 whole entry): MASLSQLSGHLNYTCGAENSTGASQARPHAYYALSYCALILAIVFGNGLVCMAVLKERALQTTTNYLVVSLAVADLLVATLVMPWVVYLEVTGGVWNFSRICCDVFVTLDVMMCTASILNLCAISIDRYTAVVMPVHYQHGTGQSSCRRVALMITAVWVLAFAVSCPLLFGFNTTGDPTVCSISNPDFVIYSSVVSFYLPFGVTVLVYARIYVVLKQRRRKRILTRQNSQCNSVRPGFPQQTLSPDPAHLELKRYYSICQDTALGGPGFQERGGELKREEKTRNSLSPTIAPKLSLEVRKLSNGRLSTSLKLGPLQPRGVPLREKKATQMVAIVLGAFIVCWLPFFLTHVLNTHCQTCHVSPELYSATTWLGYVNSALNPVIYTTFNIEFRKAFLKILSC
D1, sequence (P21728 whole entry): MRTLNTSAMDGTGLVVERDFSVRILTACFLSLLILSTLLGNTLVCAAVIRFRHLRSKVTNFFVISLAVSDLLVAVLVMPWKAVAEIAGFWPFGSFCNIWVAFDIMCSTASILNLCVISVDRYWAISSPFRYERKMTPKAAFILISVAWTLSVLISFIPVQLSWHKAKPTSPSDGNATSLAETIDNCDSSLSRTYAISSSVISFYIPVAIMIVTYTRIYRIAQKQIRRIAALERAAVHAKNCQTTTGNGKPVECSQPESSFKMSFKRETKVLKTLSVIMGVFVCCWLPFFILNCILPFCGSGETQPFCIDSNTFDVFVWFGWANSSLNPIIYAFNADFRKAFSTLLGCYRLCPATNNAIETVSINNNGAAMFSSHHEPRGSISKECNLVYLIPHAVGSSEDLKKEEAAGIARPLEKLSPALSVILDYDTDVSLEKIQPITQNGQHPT
dopamine D2 receptors, sequence (P14416 whole entry): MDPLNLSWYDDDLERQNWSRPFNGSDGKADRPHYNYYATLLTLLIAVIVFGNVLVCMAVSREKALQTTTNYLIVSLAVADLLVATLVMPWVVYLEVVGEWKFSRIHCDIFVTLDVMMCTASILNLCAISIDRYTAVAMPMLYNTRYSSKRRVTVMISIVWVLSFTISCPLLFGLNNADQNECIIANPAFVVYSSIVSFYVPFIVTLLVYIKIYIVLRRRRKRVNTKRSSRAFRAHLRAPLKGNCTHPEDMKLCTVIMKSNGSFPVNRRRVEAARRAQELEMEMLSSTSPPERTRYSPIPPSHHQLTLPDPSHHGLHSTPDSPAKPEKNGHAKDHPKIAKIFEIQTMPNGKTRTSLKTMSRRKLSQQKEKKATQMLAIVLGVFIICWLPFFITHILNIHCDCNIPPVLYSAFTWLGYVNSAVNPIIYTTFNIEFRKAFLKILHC

For orientation: EC50 means the concentration giving half of the maximal effect. High values mean lower potency in that assay, low ones higher potency in that assay. Usually Ki stands for the equilibrium dissociation constant of an inhibitor or competing ligand from its target. A low value points to higher affinity. `c1ccc2c(c1)N=C(N1CCNCC1)c1ccccc1N2` [C21, 11-(1-piperazinyl)-5H-dibenzo[b,e][1,4]diazepine]: the “food intake, light cycle, sated mice” value in [1] (SIM1-Cre mice with AAV-DIO-hM4Di-mCherry, i.p.) is listed as “substantially enhanced food consumption at comparable levels to CNO”; in data set [3] (AgRP-ires-Cre mice with AAV-DIO-hM3Dq-mCherry, i.p.), “dose-dependently promoted food consumption at comparable levels to CNO”. In addition, the “food intake in control mice” value is recorded as “neither C21 nor CNO ligand influenced food intake” in data set [1] (wildtype (non-Cre-expressing) littermates injected with AAV-DIO-hM4Di-mCherry) and “neither C21 nor CNO affected feeding behavior” in data set [3] (wildtype (non-Cre-expressing) littermates injected with AAV-DIO-hM3Dq-mCherry). Moreover, the “antagonist activity, cAMP assay” value on D1 is “antagonism”. Moreover, in data set [2] (5 mg/kg i.p.), the “effective free concentration at the peak, brain” value is 28 nM. The “effective free concentration at the peak, plasma” value in data set [2] (5 mg/kg i.p.) is roughly 54 nM. Moreover, the brain level reached in [2] (5 mg/kg i.p., time course) is 579 ng/mL and 2 μM. Besides, the peak plasma level in data set [2] (5 mg/kg i.p., time course) was 1150 ng/mL and 4.12 μM. Further, in [2] (dose 0.3 mg/kg, mice), the “calculated free brain concentration” value was roughly 1.7 nM. Further, the calculated free concentration in data set [2] (dose 3 mg/kg, mice) is on record as roughly 17 nM. Further, the “brain and plasma levels” value in [2] (setting [4]) is “measurable brain and plasma levels”. For the same compound, the metabolism to clozapine result in data set [2] (setting [4]) is “no evidence of metabolism to clozapine”. For the same compound, the food intake result in the data set on hM3Dq in LH-vGAT neurons is “drives feeding in a dose-dependent fashion”. At hM1Dq, a half-maximal effect (EC50) was put at 288 nM. In addition, the Ki on hM1 is 1070 nM. In addition, the “agonist activity, follow-up concentration-response (cAMP)” value at dopamine D3 receptors, on histamine H4 receptors and at dopamine D2 receptors was “minimal activity” each time.

These data come from PMC6407913, “DREADD Agonist 21 Is an Effective Agonist for Muscarinic-Based DREADDs in Vitro and in Vivo” (ACS Pharmacology & Translational Science, 2018).
